Experimental data: patent publication US20250114338A1, “TETRAHYDRO-PYRIDO[3,4-b]INDOLE ESTROGEN RECEPTOR MODULATORS AND USES THEREOF” (Genentech, Inc., priority 2014, published 2025)

Experiments:
immature rat uterus = assay: Immature Uterine Wet Weight Assay, agonist mode (Example 906); format: in vivo; details: dosed PO, QDx3, uterine wet weight:body weight ratio, endometrial height
Procedure: All of the exemplary Formula I compounds in Tables 1 and 2 were made and characterized by LCMS [M+H]^+ (liquid chromatography mass spectroscopy) with detection of parent ion. […] ER-alpha MCF7 HCS Sinf (%) values in Table 1 were measured by the Breast Cancer Cell ERa High Content Fluorescence Imaging Degradation Assay of Example 901. […] RTP, 25 (3):226-31). […] Where more than one name is associated with a Formula I compound or intermediate, the chemical structure shall define the compound. Female immature CD-IGS rats (21 days old upon arrival) are treated for three days. Animals are dosed daily for three days. […] For Agonist Mode, Vehicle or test compound is administered orally by gavage. On the fourth day 24 hours after dose, plasma is collected for pharmacokinetic analysis. Immediately following plasma collection, the animals are euthanized and the uterus removed and weighed. […] Stained tissues are analyzed and read by a board certified pathologist. Uteri and ovaries from 4 animals per group are flash frozen in liquid N2 for transcriptional analysis, examining a select set of genes modulated by the estrogen receptor. […] U.S. Pat. […] Vehicle and Vehicle plus ethynyl estradiol (EE). All compounds were dosed PO, QDx3. Uterine Wet Weight (UWW): Body Weight ratios were calculated. The mean Endometrial Height of Uterine cross sections were measured by histology. Endometrial cell height was measured from the basement membrane to the apical (luminal) surface using a slide viewer at 20× magnification. Obliquely cut areas were avoided.

[1] = molecular target: estrogen receptor alpha (ESR1) in MCF7 breast cancer cells (Homo sapiens (Human), UniProt P03372); assay: Breast Cancer Cell ERa High Content Fluorescence Imaging Degradation Assay (Example 901); format: cell-based; details: 4 hours, plateau of maximal effect, 0% = DMSO, 100% change = 5 nM Fulvestrant
estrogen receptor alpha (ESR1) in MCF7 breast cancer cells, sequence (P03372 whole entry): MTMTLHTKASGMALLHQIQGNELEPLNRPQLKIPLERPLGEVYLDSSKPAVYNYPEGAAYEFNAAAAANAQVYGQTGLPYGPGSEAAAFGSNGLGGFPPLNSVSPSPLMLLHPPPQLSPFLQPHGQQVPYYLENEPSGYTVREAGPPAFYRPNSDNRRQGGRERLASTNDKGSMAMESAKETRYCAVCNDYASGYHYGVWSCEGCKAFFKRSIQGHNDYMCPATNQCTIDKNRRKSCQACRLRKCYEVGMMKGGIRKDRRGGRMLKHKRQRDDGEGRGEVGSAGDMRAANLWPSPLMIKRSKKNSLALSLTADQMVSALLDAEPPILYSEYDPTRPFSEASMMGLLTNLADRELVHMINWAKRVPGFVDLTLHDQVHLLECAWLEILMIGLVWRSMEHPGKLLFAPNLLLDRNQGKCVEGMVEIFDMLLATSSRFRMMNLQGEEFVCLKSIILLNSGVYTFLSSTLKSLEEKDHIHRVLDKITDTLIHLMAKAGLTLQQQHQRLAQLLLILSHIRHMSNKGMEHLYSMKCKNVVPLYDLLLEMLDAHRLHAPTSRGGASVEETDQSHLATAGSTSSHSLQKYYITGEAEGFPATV
Procedure: Where more than one name is associated with a Formula I compound or intermediate, the chemical structure shall define the compound. […] Cell plates were incubated at 37° C., for 4 hours. Fixation and permeabilization were carried out using a Biotek EL406 plate washer and dispenser as follows. […] Well contents were aspirated and washed 3 times with 100 μL/well of PBS. […] Samples were incubated for 2 hours at room temperature. […] Samples were incubated for 2 hours at room temperature. […] Quantitative fluorescence imaging of ESR1 was carried out using a Cellomics Arrayscan V (Thermo). […] Channel 1 (DNA stain) was used to define the nuclear region (Circ). […] The “Robust Fit” method was used to define the inflexion point of curve (EC50) and the plateau of the maximal effect (Sinf).

ER-alpha MCF7 = ER-alpha MCF7 HCS EC50; stated as measured by in vitro cell proliferation assays of Examples 902 and 903; format: cell-based; details: Homo sapiens, MCF7, MCF7 cells; Table 1
Summary of the method: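 MCF7 cells seeded 1000-2000 cells/well for 16 h, then treated with nine-point 1:2 DMSO dilution series in quadruplicate at 37 °C, 5% CO2 for 4 days. Viable cells quantified by CellTiter-Glo ATP luminescence; EC50 calculated. Controls: fulvestrant at final 100 nM, DMSO 0.2% v/v.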

| ER-alpha MCF7 HCS Sinf (%) [1] [%] | EC50 (ER-alpha MCF7) [nM] | Compound | agonist mode UWW assay: antagonist / partial agonist (immature rat uterus) |
| --- | --- | --- | --- |
| – | – | C[C@@H]1Cc2c([nH]c3ccccc23)[C@@H](c2c(F)cc(/C=C/C(=O)O)cc2F)N1CC(C)(C)F [AZD9496, reference compound] | partial agonist |
| −100 | – | C[C@@H]1Cc2c([nH]c3ccccc23)[C@@H](c2c(F)cc(OC3CN(CCCF)C3)cc2F)N1CC(C)(C)F [Example 101, (1R,3R)-1-(2,6-difluoro-4-((1-(3-fluoropropyl)azetidin-3-yl)oxy)phenyl)-2-(2-fluoro-2-methylpropyl)-3-methyl-2,3,4,9-tetrahydro-1H-pyrido[3,4-b]indole] | antagonists |
| −98.9 | – | C[C@@H]1Cc2c([nH]c3ccccc23)[C@@H](c2c(F)cc(OCCN3CC(CF)C3)cc2F)N1CC(C)(C)F [Example 102, (1R,3R)-1-(2,6-difluoro-4-(2-(3-(fluoromethyl)azetidin-1-yl)ethoxy)phenyl)-2-(2-fluoro-2-methylpropyl)-3-methyl-2,3,4,9-tetrahydro-1H-pyrido[3,4-b]indole] | antagonists |
| −96.1 | 1.04 | C[C@@H](CO)CN1[C@H](c2c(F)cc(OCCN3CC(CF)C3)cc2F)c2[nH]c3ccccc3c2C[C@H]1C [Example 123, (R)-3-((1R,3R)-1-(2,6-difluoro-4-(2-(3-(fluoromethyl)azetidin-1-yl)ethoxy)phenyl)-3-methyl-3,4-dihydro-1H-pyrido[3,4-b]indol-2(9H)-yl)-2-methylpropan-1-ol] | – |
| −75 | 135 | C[C@@H]1Cc2c([nH]c3ccccc23)[C@@H](c2c(F)cc(OCCN3CC(CF)C3)cc2F)N1C(=O)C1CC(O)C1 (stereo partly drawn) [Example 124, ((1R,3R)-1-(2,6-difluoro-4-(2-(3-(fluoromethyl)azetidin-1-yl)ethoxy)phenyl)-3-methyl-3,4-dihydro-1H-pyrido[3,4-b]indol-2(9H)-yl)((1s,3S)-3-hydroxycyclobutyl) methanone] | – |
| −90 | 74.4 | CC(C)C(=O)N1C(c2c(F)cc(OCCN3CC(CF)C3)cc2F)c2[nH]c3ccccc3c2CC1(C)C (centres unmarked) [Example 125, 1-(1-(2,6-difluoro-4-(2-(3-(fluoromethyl)azetidin-1-yl)ethoxy)phenyl)-3,3-dimethyl-3,4-dihydro-1H-pyrido[3,4-b]indol-2(9H)-yl)-2-methylpropan-1-one] | – |
